Reference: US20240350491A1, “METHODS AND COMPOSITIONS FOR IMMUNE CONTROL THROUGH DICKKOPF-1” (Baylor College of Medicine, priority 2021, published 2024)

Experiments:
C57BL/6 mice [1] = test: Steroid-resistant AAD models (A. niger ± LPS), fluticasone propionate; type: in vivo; settings: A. niger conidia ±30 ng LPS; daily treatment
Experimental: As shown in the severe eosinophilic and neutrophilic steroid-resistant AAD models of FIGS. 14A-14B, mice challenged with Aspergillus niger (AN) develop an asthma phenotype, here showing airway hyperresponsiveness (AHR), that is steroid (fluticasone propionate; FP, a commonly used steroid in asthma) resistant. Illustrated in FIG. 14A is an experimental timeline for assessing the effect of daily FP or vehicle (liposome: dilauroylphosphatidylcholine: DLPC) treatment on AHR. AHR was measured as a function of respiratory system resistance (RRS(cmH2O·s·ml^−1)) in C57BL/6 mice challenged intranasally (q.o.d.) with 4×10^5 A. niger (AN) conidia ±30 ng lipopolysaccharide (LPS) (FIG. 14B).

Dkk-1 [2] = target: T1, Dkk-1 (Mus musculus, UniProt O54908); test: C. albicans-induced allergic airway disease in mice given Dkk-1 inhibitor intraperitoneally; type: in vivo, C57BL/6 mice
T1 construct: endogenous in cells; host or cells: C57BL/6 mice (whole animal; Dkk-1 released from platelets into plasma)
T1 sequence (O54908 32-272): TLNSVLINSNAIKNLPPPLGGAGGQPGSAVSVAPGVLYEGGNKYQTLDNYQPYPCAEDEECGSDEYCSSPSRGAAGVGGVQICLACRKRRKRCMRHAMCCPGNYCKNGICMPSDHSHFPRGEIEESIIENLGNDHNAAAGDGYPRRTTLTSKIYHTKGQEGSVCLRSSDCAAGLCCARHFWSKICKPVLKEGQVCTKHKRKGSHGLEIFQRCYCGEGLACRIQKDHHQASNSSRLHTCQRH
Experimental: The relevance of Dkk-1 to allergic airway disease induced by airway mycosis is unknown. Mice challenged with C. albicans were administered a Dkk-1 inhibitor (WAY 262611) previously shown to block this peptide in vivo (Chae et al., 2016b) (FIG. 2G).
(§1) C57BL/6 mice were administered 1×10^5 viable cells of C. albicans intranasally every other day for 8 challenges as shown in FIG. 1 (Porter et al., 2011a). Alternatively, C57BL/6 mice were given 4, 8, and 16 μmol candidalysin or 16 μmol of scrambled peptide control in PBS every other day for 8 challenges as shown in FIG. 8. Dkk-1 inhibitor (Chae et al., 2016a) (WAY262611, cat: 317700, Millipore Sigma, Burlington, MA. Dose: 10 or 20 μg/kg) and recombinant mouse Dkk-1 (5897-DK-010, R&D systems, Minneapolis, MN. Dose: 5 μg/kg) were given intraperitoneally at the same time and fungal challenge. Mice were analyzed 24 h after the final challenge for allergic airway disease endpoints.
(§2) Bronchial constriction in response to increasing dose of acetylcholine (Ach) injected intravenously, bronchoalveolar lavage fluid (BALF) cell differential counting, Dkk-1 quantitation from plasma, ELISA analysis of whole lung, flow cytometry analysis of Th cells and lung histopathology were assessed in response to C. albicans challenge as previously described (Porter et al., 2011a). Briefly, mice were anesthetized with etomidate and intravenously injected with acetylcholine via tail vein to assess AHR as quantified by measuring respiratory system resistance (RRS). Total BALF cells were collected by lavaging whole lung, total cells were enumerated and differential cell counting was performed on modified Giemsa-stained cytospin preparations. Plasma was harvested by retro-orbital bleeding and anti-coagulated by 10% 0.5M EDTA (Thermofisher scientific, Waltham MA). Lungs were harvested and processed as follows. Lungs were cut into small pieces and incubated in digestion buffer (2 mg/ml collagenase (#LS004177, Worthington), 0.04 mg/ml DNAse (#10104159001, Sigma) 1, 20% FBS in HBSS) for 1 h at 37° C. after which they were deaggregated by pressing through a […] nylon mesh and centrifuged at 400×g for 5 minutes at 4° C. Supernatants were discarded, and 1.5 mL of ACK (Thermofisher scientific, Waltham MA) was added and incubated for 3 min at room temperature for erythrocyte lysis. ACK was then neutralized with 7.5 mL of complete RPMI-1640 (Corning, NY), with 10% FBS and 1% Pen Strep, Gibco, Waltham MA). The resulting leukocyte preparations were centrifuged and prepared for flow cytometry analysis or ELISA.
Cell culture supernatants were analyzed for cytokines by standard ELISA after comparison to recombinant standard. IL-4 (Clone 11B11 and 554390 BD Biosciences, San Jose, CA), IL-5, IL-13 (DY405, DY413, R&D systems, Minneapolis, MN), IL-17 (BMS2017, Thermofisher scientific, Waltham MA), IFN-7 (555142, BD Biosciences, San Jose, CA), IL-1, IL-6, TNF (ab210895, ab213749 and ab212073, Abcam, Cambridge MA) were used as antibodies pairs and capture signals were amplified using Streptavidin-horseradish peroxidase conjugate (51-9002813, BD Biosciences, San Jose, CA). The plate was further developed using TMB substrate solution (N301, Thermofisher scientific, Waltham MA) and detected at the absorbance wavelength of 450 nm.
Total lung cells isolated above were stained with Live/Dead Fix Blue (L34961, Thermofisher scientific, Waltham MA), CD45, CD3, CD4 (103122, 100222, 100412, Biolegend, San Diego, CA). Cells were separated into 3 groups, then permeabilized and fixed using Transcription Factor Buffer Set (562574, BD Biosciences, San Jose, CA), and stained individually for T-bet, GATA3 or RORγt (561265, 560074, 562607, BD Biosciences, San Jose, CA). For megakaryocyte staining, total lung cells were stained with Live/Dead Fix Blue and CD41, CXCR4 (133927, 146507, Biolegend, San Diego, CA), Dkk-1 (BAM1765, R&D systems, Minneapolis, MN) and PE-streptavidin (405203, Biolegend, San Diego, CA). […]

Dkk-1 [3] = target: T1, Dkk-1; test: Fungal experimental asthma due to Aspergillus niger, Dkk-1 antagonist IN or IP; type: in vivo, C57BL/6 mice
Experimental: C57BL/6 mice (4-6 weeks old) were challenged every second day with 400,000 viable conidia of AN while at the same time receiving a Dkk-1 antagonist (WAY262611) intranasally (IN) or intraperitoneally (IP) for 14 days. Airway hyperresponsiveness as assessed by enhanced increases in respiratory system resistance in response to increasing doses of acetylcholine chloride injected intravenously were determined as compared to PBS control mice (blue line). […] Thus, regardless of the fungus used, either Candida albicans or A. niger as shown herein, Dkk-1 can induce AHR. Statistics: IP versus IN or AN lines: P<0.05.

Human platelets = test: Dkk-1 release from human platelets stimulated overnight at 4° C. or 37° C.; type: cell-based; settings: overnight at both 4° C. and 37° C.; versus unstimulated platelets
Experimental: To investigate agents driving Dkk-1 release by platelets, human platelets were stimulated with lipopolysaccharide (LPS), thrombin, prothrombin (ProThrom), proteinase of Aspergillus melleus (PAM), or candidalysin (C. Lysin) overnight at 4° C. (FIG. 13A) or 37° C. (FIG. 13B). Unstimulated human platelets served as a control (platelets). Following stimulation, Dkk-1 concentration in the supernatant was quantified.

C57BL/6 mice [4] = test: Recombinant mouse Dkk-1 i.p. in ece1Δ/Δ C. albicans-challenged mice; type: in vivo
Experimental: To confirm, synthetic mouse Dkk-1 was administered to mice challenged with ece1Δ/Δ C. albicans (FIG. 3A). […] Dkk-1 alone had no effect on any index of allergic airway disease when administered through the intraperitoneal route (data not shown). Thus, in some aspects, Dkk-1 may be an important mediator of lung Th2 cell responses (Chae et al., 2016b), and may be equally important for the generation of Th17 cell responses in the context of airway mycosis. These findings further confirm that Dkk-1 is essential for the control of C. albicans growth in the lung.
as §1, §2

[5] = ece1Δ/Δ C. albicans-challenged mice

CCC(=O)O[C@]1(C(=O)SCF)[C@H](C)C[C@H]2[C@@H]3C[C@H](F)C4=CC(=O)C=C[C@]4(C)[C@@]3(F)[C@@H](O)C[C@@]21C [FP, fluticasone propionate]
airway hyperresponsiveness (C57BL/6 mice [1]): exacerbate

NCC1CCN(c2nccc(-c3ccc4ccccc4c3)n2)CC1 [WAY 262611]
lung fungal burdens (Dkk-1 [2]; C. albicans-challenged mice): markedly elevated
BALF eosinophilia (Dkk-1 [2]; C. albicans-challenged mice, 10 or 20 μg/kg i.p.): most notably reducing
BALF inflammatory cell recruitment (Dkk-1 [2]; C. albicans-challenged mice, 10 or 20 μg/kg i.p., dose-dependent): progressively reduced
secretion of type 2 cytokines (IL-4, IL-5, IL-13) from whole lung (Dkk-1 [2]; C. albicans-challenged mice, ELISA): suppression
airway hyper-responsiveness (Dkk-1 [2]; C. albicans-challenged mice, inhibitor 10 or 20 μg/kg i.p., dose-dependent, 24 h after final challenge): progressively reduced
secretion of IL-1β, IL-6 and TNF (Dkk-1 [2]; C. albicans-challenged mice, lung, ELISA): not significantly affected
secretion of IL-17 (Dkk-1 [2]; C. albicans-challenged mice, whole lung, ELISA): inhibited
recruitment to whole lung of GATA3+ Th2 and RORγt+ Th17 cells (Dkk-1 [2]; flow cytometry, correlated with inhibitor dose): decreased recruitment
airway hyperresponsiveness (AHR) in fungal experimental asthma due to Aspergillus niger (Dkk-1 [3]; FIG. 16 legend, route not stated): abrogates
AHR induced by AN (Dkk-1 [3]; IP route (systemic), 14 days, P<0.05 versus IN or AN): abrogates

thrombin
Dkk-1 release by platelets (Human platelets): significantly increased

B1: Dkk-1: recombinant mouse Dkk-1 (5897-DK-010, R&D systems), Wnt pathway antagonist peptide (protein, UniProt O54908 32-272, looked up)
Dickkopf-related protein 1: T1 sequence (O54908 32-272)
any index of allergic airway disease (C57BL/6 mice [4]; Dkk-1 alone, intraperitoneal route, data not shown): no effect
fungal lung burdens (C57BL/6 mice [4]; [5]): significantly reduced
recruitment of inflammatory cells, especially eosinophils, to the airways (C57BL/6 mice [4]; [5]): markedly enhanced
recruitment to lung of GATA3+ Th2 and RORγt+ Th17 cells (C57BL/6 mice [4]; [5]): markedly increase
secretion of innate pro-inflammatory cytokines (C57BL/6 mice [4]; [5]): did not influence
secretion of lung Th2 cytokines, especially IL-4, but also IL-17 (C57BL/6 mice [4]; [5]): markedly enhanced
airway hyper-responsiveness (C57BL/6 mice [4]; ece1Δ/Δ C. albicans-challenged mice, 5 μg/kg i.p.): significantly enhanced
